{"source": "ChEMBL document CHEMBL1138486", "about": "“Sequence-derived three-dimensional pharmacophore models for G-protein-coupled receptors and their application in virtual screening” (J Med Chem, 2009)", "data": [{"target": "T1, Complement component 3a receptor 1, isoform CRA_a (Homo sapiens, UniProt A8K2H7)", "T1 sequence (A8K2H7 whole entry)": "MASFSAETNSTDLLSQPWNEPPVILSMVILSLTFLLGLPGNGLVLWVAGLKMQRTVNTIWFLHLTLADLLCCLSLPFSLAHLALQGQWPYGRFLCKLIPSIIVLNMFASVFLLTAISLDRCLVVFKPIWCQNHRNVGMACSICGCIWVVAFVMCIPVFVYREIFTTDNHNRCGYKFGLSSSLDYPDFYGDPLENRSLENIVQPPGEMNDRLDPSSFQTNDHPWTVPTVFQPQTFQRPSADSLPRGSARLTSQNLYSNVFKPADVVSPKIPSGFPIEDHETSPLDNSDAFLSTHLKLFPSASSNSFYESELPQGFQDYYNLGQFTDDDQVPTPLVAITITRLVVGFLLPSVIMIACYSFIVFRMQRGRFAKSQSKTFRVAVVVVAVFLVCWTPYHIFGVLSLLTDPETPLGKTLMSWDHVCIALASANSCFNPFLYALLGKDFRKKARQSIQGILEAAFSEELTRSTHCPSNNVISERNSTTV", "assay": "Agonist activity at human C3AR1 expressed in […] by FLIPR assay", "type": "functional, cell-based", "units": {"EC50": "nM"}, "values": [{"smiles": "CCCc1nc(Br)c(S(C)(=O)=O)n1Cc1ccc(-c2ccccc2-c2nn[nH]n2)cc1", "EC50": 2}, {"smiles": "CCCCn1c(Cc2ccccc2)nc2cc(/C(=C/C(=O)O)c3ccccc3)ccc21", "EC50": 2.7}, {"smiles": "CCCCc1cn(Cc2ccc(-c3ccccc3C(=O)O)cc2)c2cccc(SC)c2c1=O", "EC50": 530}, {"smiles": "CCCCc1nc2cccc(CCCl)c2n1Cc1ccc(-c2ccccc2C(=O)O)cc1", "EC50": 310}]}]}
